Active and inactive are the calls of the source.
Legend:
[1] = target: 3',5'-cyclic-AMP phosphodiesterase 4D (Homo sapiens, UniProt Q08499); assay: Inhibition of human PDE4D catalytic domain using [3H]-cAMP or [3H]-cGMP incubated for 30 mins by scintillation counting method
Rattus norvegicus [2] = assay: (§1) Antinociceptive activity in Sprague-Dawley rat model of chronic constriction injury-induced mono-neuropathic pain assessed as reduction in mechanical allodynia by measuring paw withdrawal threshold at 3 mg/kg, po administered as single dose and measured 30 mins to 24 hrs post dose by Von Frey's hairs assay; format: functional, organism-based
Rattus norvegicus [3] = assay: Antinociceptive activity in Sprague-Dawley rat model of CFA-induced chronic inflammatory pain assessed as reduction in mechanical allodynia by measuring paw withdrawal threshold at 3 mg/kg, po administered as single dose and measured 30 mins to 24 hrs post dose by Von Frey's hairs assay; format: functional, organism-based
Rattus norvegicus [4] = assay: as §1, with “at 1.8” for “at 3”; format: functional, organism-based
Rattus norvegicus [5] = assay: Antinociceptive activity in Sprague-Dawley rat model of CFA-induced chronic inflammatory pain assessed as reduction in mechanical allodynia by measuring paw withdrawal threshold at 1.8 mg/kg, po administered as single dose and measured 30 mins to 24 hrs post dose by Von Frey's hairs assay; format: functional, organism-based
Rattus norvegicus [6] = assay: as §1, with “at 60” for “at 3”; format: functional, organism-based
Rattus norvegicus [7] = assay: as §1, with “at 200” for “at 3”; format: functional, organism-based
Rattus norvegicus [8] = assay: Antinociceptive activity in Sprague-Dawley rat model of CFA-induced chronic inflammatory pain assessed as reduction in mechanical allodynia by measuring paw withdrawal threshold at 60 mg/kg, po administered as single dose and measured 30 mins to 24 hrs post dose by Von Frey's hairs assay; format: functional, organism-based
Rattus norvegicus [9] = assay: Antinociceptive activity in Sprague-Dawley rat model of CFA-induced chronic inflammatory pain assessed as reduction in mechanical allodynia by measuring paw withdrawal threshold at 200 mg/kg, po administered as single dose and measured 30 mins to 24 hrs post dose by Von Frey's hairs assay; format: functional, organism-based
Rattus norvegicus [10] = assay: as §1, with “at 20” for “at 3”; format: functional, organism-based
Rattus norvegicus [11] = assay: as §1, with “at 2” for “at 3”; format: functional, organism-based
Rattus norvegicus [12] = assay: Antinociceptive activity in Sprague-Dawley rat model of CFA-induced chronic inflammatory pain assessed as reduction in mechanical allodynia by measuring paw withdrawal threshold at 20 mg/kg, po administered as single dose and measured 30 mins to 24 hrs post dose by Von Frey's hairs assay; format: functional, organism-based
Rattus norvegicus [13] = assay: Antinociceptive activity in Sprague-Dawley rat model of CFA-induced chronic inflammatory pain assessed as reduction in mechanical allodynia by measuring paw withdrawal threshold at 2 mg/kg, po administered as single dose and measured 30 mins to 24 hrs post dose by Von Frey's hairs assay; format: functional, organism-based
Rattus norvegicus [14] = assay: Antinociceptive activity in Sprague-Dawley rat model of CFA-induced chronic inflammatory pain assessed as reduction in mechanical allodynia by measuring paw withdrawal threshold at 10 mg/kg, po administered as single dose and measured 30 mins to 24 hrs post dose by Von Frey's hairs assay; format: functional, organism-based
Rattus norvegicus [15] = assay: as §1, with “at 50” for “at 3”; format: functional, organism-based
Rattus norvegicus [16] = assay: as §1, with “at 500” for “at 3”; format: functional, organism-based
Rattus norvegicus [17] = assay: Antinociceptive activity in Sprague-Dawley rat model of CFA-induced chronic inflammatory pain assessed as reduction in mechanical allodynia by measuring paw withdrawal threshold at 50 mg/kg, po administered as single dose and measured 30 mins to 24 hrs post dose by Von Frey's hairs assay; format: functional, organism-based
Rattus norvegicus [18] = assay: Antinociceptive activity in Sprague-Dawley rat model of CFA-induced chronic inflammatory pain assessed as reduction in mechanical allodynia by measuring paw withdrawal threshold at 500 mg/kg, po administered as single dose and measured 30 mins to 24 hrs post dose by Von Frey's hairs assay; format: functional, organism-based

Chain of 3',5'-cyclic-AMP phosphodiesterase 4D (Q08499 whole entry, the tested form may be a part): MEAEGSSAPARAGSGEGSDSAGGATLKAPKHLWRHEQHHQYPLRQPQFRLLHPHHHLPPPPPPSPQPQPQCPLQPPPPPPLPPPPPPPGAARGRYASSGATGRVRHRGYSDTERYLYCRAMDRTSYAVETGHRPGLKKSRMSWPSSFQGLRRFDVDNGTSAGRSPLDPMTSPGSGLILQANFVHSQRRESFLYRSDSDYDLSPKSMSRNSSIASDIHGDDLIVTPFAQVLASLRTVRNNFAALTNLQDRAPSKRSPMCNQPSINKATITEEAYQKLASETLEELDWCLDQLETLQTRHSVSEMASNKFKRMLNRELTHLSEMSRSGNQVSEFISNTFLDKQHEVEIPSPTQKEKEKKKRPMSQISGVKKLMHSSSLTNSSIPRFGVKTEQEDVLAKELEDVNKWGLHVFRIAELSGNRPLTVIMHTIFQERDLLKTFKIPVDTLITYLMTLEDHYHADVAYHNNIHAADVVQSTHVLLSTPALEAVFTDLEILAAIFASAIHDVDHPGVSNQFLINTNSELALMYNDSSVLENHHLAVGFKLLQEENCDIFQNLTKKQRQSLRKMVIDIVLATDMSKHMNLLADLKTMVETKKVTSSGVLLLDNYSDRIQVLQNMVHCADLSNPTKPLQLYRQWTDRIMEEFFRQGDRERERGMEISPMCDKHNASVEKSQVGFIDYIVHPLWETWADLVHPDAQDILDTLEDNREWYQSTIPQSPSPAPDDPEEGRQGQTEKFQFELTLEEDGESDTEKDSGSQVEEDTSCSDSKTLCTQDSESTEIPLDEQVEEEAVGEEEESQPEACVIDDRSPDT

Q: With `COc1cc2c(cc1OC)[C@@H]1CN(C)CC[C@@H]1N=C2c1ccc(NS(=O)(=O)c2ccc(C)cc2)cc1` as the compound, how does the IC50 [1] read?
A: 30 nM

Q: With `COc1ccc([C@]2(C#N)CC[C@@H](C(=O)O)CC2)cc1OC1CCCC1` as the compound, how does the Activity (Rattus norvegicus [2]) read?
A: Active

Q: What about the Activity (Rattus norvegicus [3]) of the same compound?
A: Active

Q: For `O=C(Nc1c(Cl)cncc1Cl)c1ccc(OC(F)F)c(OCC2CC2)c1`, which Activity (Rattus norvegicus [4]) is on record?
A: Active

Q: And the Activity (Rattus norvegicus [5])?
A: Active

Q: How did the Activity (Rattus norvegicus [6]) turn out when `COc1cc(Nc2c(C#N)cnc3cc(OCCCN4CCN(C)CC4)c(OC)cc23)c(Cl)cc1Cl` was run?
A: Active

Q: What about the Activity (Rattus norvegicus [7]) of the same compound?
A: Active

Q: And the Activity (Rattus norvegicus [8])?
A: Active

Q: What about the Activity (Rattus norvegicus [9]) of the same compound?
A: Active

Q: How did the Activity (Rattus norvegicus [10]) turn out when `Nc1ncnc2c1ncn2CCOCP(=O)(O)O` was run?
A: Active

Q: And the Activity (Rattus norvegicus [11])?
A: Active

Q: What about the Activity (Rattus norvegicus [12]) of the same compound?
A: Active

Q: And the Activity (Rattus norvegicus [13])?
A: Active

Q: `COc1ccc2c(c1)c(CC(=O)O)c(C)n2C(=O)c1ccc(Cl)cc1` was tested. Which Activity (Rattus norvegicus [14]) did it give?
A: Active

Q: For `COc1cc(-c2ccc(=O)[nH]n2)ccc1OC(F)F`, which Activity (Rattus norvegicus [10]) is on record?
A: Active

Q: And the Activity (Rattus norvegicus [12])?
A: Active

Q: What does the source list for `C[C@H](Cn1cnc2c(N)ncnc21)OCP(=O)(O)O`?
A: Activity (Rattus norvegicus [15]): Active; Activity (Rattus norvegicus [16]): Active; Activity (Rattus norvegicus [17]): Active; Activity (Rattus norvegicus [18]): Active

Q: For `CC(C)C[C@H](CN)CC(=O)O`, which Activity (Rattus norvegicus [6]) is on record?
A: Active
